Structures can show the parent of a compound that is named as a salt.
How the values were obtained:
[1] = molecular target: T1, prostaglandin E2-induced contractions of segments of guinea pig ileum (Cavia porcellus, UniProt A0A286XHJ6); assay: Prostaglandin (PGE) Antagonism Assay (guinea pig ileum); format: cell-based, male albino guinea pigs; conditions: estimated from 3 micromolar (dose ratio ≥2) or Schild plot (dose ratio ≥5); 37° C.; read-out: PGE ANTAGONISM IN GUINEA PIG ILEUM (pA2) (converted)
T1 construct: Segments of ileum about 2 cm long were then cut and mounted in a 10-mL tissue bath; from tissue; host or cells: guinea pig ileum segments
T1 sequence (A0A286XHJ6 1-405): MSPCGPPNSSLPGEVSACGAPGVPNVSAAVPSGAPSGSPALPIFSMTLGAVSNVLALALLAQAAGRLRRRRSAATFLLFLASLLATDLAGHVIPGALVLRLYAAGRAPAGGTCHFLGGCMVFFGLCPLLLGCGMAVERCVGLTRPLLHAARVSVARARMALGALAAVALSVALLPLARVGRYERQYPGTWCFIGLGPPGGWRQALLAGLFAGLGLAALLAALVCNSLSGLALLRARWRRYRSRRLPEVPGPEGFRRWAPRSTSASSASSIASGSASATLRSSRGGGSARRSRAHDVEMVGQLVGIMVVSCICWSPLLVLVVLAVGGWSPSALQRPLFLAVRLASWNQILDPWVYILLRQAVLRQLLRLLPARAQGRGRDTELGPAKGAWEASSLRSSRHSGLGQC
Excerpt: The phrase "EC50 concentration" as used herein means that concentration of a compound or drug which is necessary to elicit a 50% maximal biological response and, thus, which is necessary to elicit a 50% reduction in the contractions of guinea pig ileum segments in a prostaglandin antagonism assay. (b) Prostaglandin (PGE) Antagonism Assay In order to determine the effectiveness of several of the compounds of the present invention ("test compounds") as prostaglandin E2 antagonists,a prostaglandin antagonism assay was conducted, as described below, to determine the ability of these compounds to inhibit prostaglandin E2 -induced contractions of segments of guinea pig ileum. […] Male albino guinea pigs weighing 200 to 500 grams were sacrificed by cervical dislocation. The ilea were then quickly removed from the guinea pigs and placed in a modified Tyrode solution, a solution which is known to those skilled in the art, containing one-half of the usual amount of magnesium ions. Segments of ileum about 2 cm long were then cut and mounted in a 10-mL tissue bath containing the modified Tyrode solution. The solution was maintained at 37° C. and aerated with a gaseous mixture of 95% oxygen and 5% carbon dioxide. Data for a control prostaglandin E2 dose response curve plotting concentration of prostaglandin E2 versus the intensity of contractions, detected isotonically, was then obtained by experimentally adjusting the dose of the prostaglandin E2 being injected into the tissue bath, in a manner known by those of skill in the art. Solutions or suspensions containing an initial concentration (3 micromolar) of a test compound in modified Tyrode solution ("test solutions/suspensions") were then separately substituted for the control bath solution. Each test solution/suspension was then kept in constant contact with the ileum tissue, except for brief periods to drain the bath in preparation for rinsing with fresh test solution/suspension. A second prostaglandin E2 dose response curve was then generated for prostaglandin E2 in the presence of a test compound. A dose ratio of EC50 doses was then calculated from the results of each test in a manner known by those of skill in the art. A test compound was determined to be "active" if the initial concentration used yielded at least a two-fold shift (dose ratio greater than or equal to 2) in the dose response curve for prostaglandin E2. […] The compounds of the present invention which were tested in this assay, and for which results are presented in Table 1, correspond to the particular examples specified in Table 1.

[2] = Writhing Assay (PBQ-induced writhing, analgesia); format: in vivo, Charles River male albino mice; conditions: Mus musculus, po; intragastric, 30 mg per kilogram, 25 minutes before PBQ i.p.; writhes ≤ one-half median of saline control; read-out: WRITHING ASSAY, number of mice out of 9 or 10 in which test compound produced analgesia (converted)
Description: The phrase "ED50 dose" as used herein means that dose of a compound or drug which produced a biological effect, such as producing analgesia, in 50% of the animals to which the compound or drug was administered. The Writhing Assay is one of the most widely-used experimental procedures for measuring the analgesic activity of different narcotic and nonnarcotic analgesic agents, and involves the continuous, chemically-induced pain of visceral origin to an animal, such as a mouse or rat. [Gyires et al., Arch. int. Pharmacodyn, 267, 131-140 (1984); […] al., Fed. Proc., 15, 494 (1956); Koster et al., Fed. Proc., 18, 412 (1959); and Witken et al., J. Pharmacol. exp. Ther., 133, 400-408 (1961).] Chemicals which may be used to induce this pain include phenylbenzoquinone (PBQ) and acetic acid. As a result of the chemical irritation to the animal, a characteristic stretching and writhing of the animal (dorsiflexion of the animal's back, extension of its hindlimbs and the strong contraction of its abdominal musculature) will generally occur. […] Drugs which reduce the number of writhes of the animal appear to restore the normal nociceptive threshold of the animal. […] Charles River male albino mice, weighing 20 to 30 grams were used in this assay. Twenty-five minutes after intragastric administration to nine or ten mice of 30 mg per kilogram of body weight of a compound of the present invention ("test compound"), […] per 10 g of body weight of a 0.025% w/v solution of PBQ was injected intraperitoneally into each mouse. Ten mice which were given saline in place of a test compound of the invention were used as a control group. Five minutes later, each mouse was individually placed into a glass beaker for observation, and the number of writhes occurring during the following ten-minute period was counted. A test compound was considered to have produced analgesia in a mouse if, in accordance with the conditions set forth above, and under the test criteria employed for this assay, after the administration of 30 mg per kilogram of body weight of a compound of the present invention to the mouse, the number of writhes elicited by a mouse injected with PBQ was equal to, or less than, one-half the median number of writhes recorded for the saline-treated control group of mice that day, as described by Taber in "Predictive Value of Analgesic Assays in Mice and Rats," Advances in Biochemical Psychopharmacology, 8, 191 (1974). The results for the particular compounds of the present invention analyzed in this assay, and discussed in the examples identified below which correspond thereto, are presented in Table 1 hereinbelow as fractions under the heading "WRITHING ASSAY." The fractions indicate the number of mice out of nine or ten in which a test compound produced analgesia. The standard initial screening dose of a test compound employed in this assay was 30 milligrams per […] of body weight. If this initial screening dose of the test compound produced analgesia in seven of nine or ten mice, then the effect of additional doses of the test compound on the writhing response was evaluated, and then the ED50 dose was generally calculated. (The slopes of the dose-response curves for all test compounds analyzed were compared as described by Tallarida and Murray, Manual of Pharmacologic Calculations, Page 11 (Springer Verlag, New York, 1981)). All ED50 doses calculated are also presented below as whole numbers in Table 1, under the heading "WRITHING ASSAY."

Row | SMILES | Kb [1] [nM] | responders at 30 mg/kg [2] [%]
1 | CCOC(=O)c1coc(CN2Cc3ccccc3Oc3ccc(Cl)cc32)n1 [Example 7, Ethyl 2-[(8-chlorodibenz[b,f][1,4]oxazepin-10(11H)yl)methyl]-4-oxazole carboxylate] | 794 | 90
2 | O=C(O)c1coc(CN2Cc3ccccc3Oc3ccc(Cl)cc32)n1 [Example 8A, 2-[(8-chlorodibenz[b,f][1,4]oxazepin-10(11H)yl)methyl]-4-oxazole carboxylic acid, sodium salt] | 39.8 | 10
3 | O=C(NCCc1ccccn1)c1coc(CN2Cc3ccccc3Oc3ccc(Cl)cc32)n1 [Example 9, 2-[(8-chlorodibenz[b,f][1,4]oxazepin-10(11H)yl)methyl]-N-[2-(2-pyridinyl)ethyl]-4-oxazolecarboxamide, hydrochloride] | 200 | 70
4 | O=C(NCc1ccccn1)c1coc(CN2Cc3ccccc3Oc3ccc(Cl)cc32)n1 [Example 10, 2-[(8-chlorodibenz[b,f][1,4]oxazepin-10(11H)yl)methyl]-N-(2-pyridinylmethyl)-4-oxazolecarboxamide, monohydrochloride] | 31.6 | 20
5 | O=C(NCc1ccncc1)c1coc(CN2Cc3ccccc3Oc3ccc(Cl)cc32)n1 [Example 11, 2-[(8-chlorodibenz[b,f][1,4]oxazepin-10(11H)yl)methyl]-N-(4-pyridinylmethyl)-4-oxazolecarboxamide, monohydrochloride] | 25.1 | 90
6 | O=C(OCc1ccncc1)c1coc(CN2Cc3ccccc3Oc3ccc(Cl)cc32)n1 [Example 12, 4-pyridinylmethyl 2-[(8-chlorodibenz[b,f][1,4]oxazepin-10(11H) -yl)methyl]-4-oxazole carboxylate, hydrochloride] | – | 40
7 | O=C(NCCc1ccncc1)c1coc(CN2Cc3ccccc3Oc3ccc(Cl)cc32)n1 [Example 14, 2-[(8-chlorodibenz[b,f][1,4]oxazepin-10(11H)yl)methyl]-N-[2-(4-pyridinyl)ethyl]-4-oxazolecarboxamide, hydrochloride, acetate] | 15.8 | 60
8 | O=C(NCc1cccs1)c1coc(CN2Cc3ccccc3Oc3ccc(Cl)cc32)n1 [Example 15, 2-[(8-chlorodibenz[b,f][1,4]oxazepin-10(11H)yl)methyl]-N-(2-thienylmethyl)-4-oxazolecarboxamide] | 158 | 70
9 | O=C(Nc1cncnc1)c1coc(CN2Cc3ccccc3Oc3ccc(Cl)cc32)n1 [Example 16, 2-[(8-chlorodibenz[b,f][1,4]oxazepin-10(11H)yl)methyl]-N-5-pyrimidinyl-4-oxazolecarboxamide] | 3160 | –
10 | O=C(Nc1ccncc1)c1coc(CN2Cc3ccccc3Oc3ccc(Cl)cc32)n1 [Example 17, 2-[(8-chlorodibenz[b,f][1,4]oxazepin-10(11H)yl)methyl]-N-4-pyridinyl-4-oxazolecarboxamide, hydrochloride] | 398 | –
11 | CCOC(=O)c1csc(CN2Cc3ccccc3Oc3ccc(Cl)cc32)n1 [Example 19, ethyl 2-[(8-chlorodibenz[b,f][1,4]oxazepine-10(11H)yl)methyl]-4-thiazolecarboxylate] | 1580 | 10
12 | Cc1nc(CN2Cc3ccccc3Oc3ccc(Cl)cc32)cs1 [Example 23, 8-chloro-10,11-dihydro-10-[(2-methyl-4-thiazolyl)methyl]dibenz[b,f][1,4]oxazepine hydrochloride] | – | 11.1
13 | CN(C)CCNC(=O)c1csc(N2Cc3ccccc3Oc3ccc(Cl)cc32)n1 [Example 27, 2-(8-Chlorodibenz[b,f][1,4]Oxazepin-10(11H)-yl)-N-[2-(dimethylamino)ethyl]-4-thiazolecarboxamide, monohydrochloride] | – | 60
14 | O=C(Nc1ccccn1)c1csc(N2Cc3ccccc3Oc3ccc(Cl)cc32)n1 [Example 30, 2-(8-Chlorodibenz[b,f][1,4]oxazepin-10(11H)-yl)-N-2-pyridinyl-4-thiazolecarboxamide, hydrochloride] | – | 40

Source: patent publication US5395932A, “2,3-,4-,5-,6-,7-,8-,9- and/or 10-substituted dibenzoxazepine compounds, pharmaceutical compositions and methods of use” (G. D. Searle & Co., priority 1993, dated 1995)
